We go through three substances from patent publication US8455443B2, “Methods of use of skin wound healing compositions” (University of Southern California, priority 2009, dated 2013).

One test has as its system HKC migration. Briefly: in vitro pro-motility (cell migration) activity of hsp90α and its fragments, FIG. 1. It counts as cell-based, human. The conditions noted are these: for activity on cell migration: relative to full length hsp90α. Here is the method:
FIG. 1 contains a list of amino acid sequences that were tested for in vitro efficacy as compared to a control medium. The amino acid sequences are identified in FIG. 1 as follows:
Therefore, hsp90α promotes HKC migration mainly through its middle and the carboxyl domains, consistent with their surface location in hsp90α.
However, as can also be seen in FIG. 1, not all of the full hsp90α protein or the entire middle domain and charged portion of hsp90α protein is necessary to promote wound healing. […] Thus, the unnecessary portions of hsp90α need not be included in a composition for wound healing, thereby allowing a composition to be more efficacious per weight of active wound healing agent. Moreover, instead of relying on complicated isolation and extraction methods to obtain the hsp90α protein or the middle domain plus charged portion of hsp90α protein, more inexpensive and conventional methods of synthesis may be employed to obtain the lower chain length polypeptide chains.

Test [1] relates to 1 cm×1 cm full-thickness excision wound on the back of nude mice. Kind of test: full-thickness excision skin wound healing in nude mice, topical treatment. It counts as in vivo. The conditions noted are these: for wound sizes: n=10 per group. Here is the method:
100 μg F-3 fragments in 100 μl of 10% Carboxymethylcellulose cream and the cream alone was topically applied to the 1 cm×1 cm wound on the back of nude mice daily for 5 days, and wounds were analyzed every two days.
The pharmaceutical 100 μl of 10% carboxymethylcellulose cream (Sterile) is mixed in and the 1 cm×1 cm wound on the back of a nude mouse is topically covered. Following this treatment, the wound is covered with a few antibiotics and bandi and the bandi are fixed by rolling the mouse with coban. The F-3 compound mixture is then added every day for up to five days and the wound is analyzed every two days.
To prepare mice for topical treatment of F-3, 1.0-cm×1.0-cm full-thickness excision wounds were made by lifting the skin with forceps and removing full thickness skin with a pair of scissors on the mid-back of 8 to 10 week old mice. The wounds were topically covered by 100 μl 10% carboxymethylcellulose either without (as a control) or with 300 μg recombinant F-3 compound. The wound area was then covered with Band-Aid and Coban, a self-adherent wrap, to prevent desiccation. Only one dose of F-3 compounds was administered to the wound. To measure the wound area, standardized digital photographs were taken of the wounds at 4, 6, 8, 11, 13 and 15 days post-wounding and the open wound areas were determined with an image analyzer (AlphaEase FC version 4.1.0, Alpha Innotech Corporation). Percentage of wound area was defined by comparing areas of healing wounds to those of the original wounds. The Student T test was used for the statistical analysis. All animal studies were conducted using protocols approved by the University of Southern California Institutional Animal Use Committee.
A 1.0-cm^2 (lcm×lcm) square full-thickness excision wound was made on the mid-back of 8 to 10 week old athymic nude mice and the pharmaceutical composition of F-3 was applied topically daily for 5 days (n=10 mice per group). (A) Representative day 4, 6, 8, 11, 13 and 15 wounds are shown. […] (B) Mean±SD wound size measurements at day 4, 6, 8, 11, 13 and 15 post-wounding (n=10 mice for each group). […]

Turning to “EEKEDKEEEKEKEEKESEDKPEIEDVGSDEEEEKKDGDKKKKKKIKEKYIDQEE (listed as Homo sapiens) [F-5, hsp90α fragment having 54 amino acid units from amino acid number 236 to 289]”, the “activity on cell migration” value in the test on HKC migration is ~100%.

Take “F-3: fragment of hsp90α consisting of 115 amino acid units, from amino acid number 236 to 350”: the “closure of the wounds” value in test [1] (100 μg in 100 μl 10% carboxymethylcellulose cream, topical, daily for 5 days, day 4, 6, 8, 11, 13, 15, vs cream control, FIGS. 2A-2F) is “significantly accelerated closure of the wounds”. Moreover, the wound sizes result in test [1] (F-3 vs 40 μg PDGF-BB (Regenerex) for 5 days, day 0, 5, 7, 10, 12, FIGS. 3A-3E) is given as “significantly reduced”; in test [1] (athymic nude mice, topical daily for 5 days, day 4, 6, 8, 11, 13, 15, vs cream alone), “significantly reduced”. In the test with HKC migration, the “activity on cell migration” value is ~100%.

As for “WT hsp90α: the full-length (WT) hsp90α protein”, the pro-motility activity result in the test with HKC migration (in comparison to the control medium) was “remarkable pro-motility activity”. Also, the “activity on cell migration” value in the test on HKC migration turned out to be 100%.
